Experimental data as given in US20240360151A1 (SANOFI, priority 2023, published 2024).

Columns and labels:
NLRP3 inflammasome = target: T1, NLRP3 inflammasome (Homo sapiens, UniProt Q96P20); assay: IL-1β secretion assay (NLRP3 IC50) in LPS-primed, nigericin-activated THP-1 cells, HTRF; format: cell-based; details: monocytic THP-1 cells; LPS 10 ng/mL 3 h priming, then compound + nigericin 10 μM 2 h; relative IC50, 10 concentrations, geometric mean
T1 construct: endogenous in cells; host or cells: THP-1 monocytic cells
Method in brief: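 IL-1β in supernatant read by HTRF after 2 h co-incubation of compound (0.1% DMSO, 10 concentrations, 1:3 series) with nigericin at 10 μM final, following 3 h LPS (10 ng/mL) priming of THP-1 monocytes at 37° C. Inhibition normalised to unactivated and no-compound controls; geometric-mean relative IC50 from 4-parameter logistic model.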

[1] = tested on: NF-kB pathway (TNF-α secretion by THP-1 cells); assay: TNF-α secretion assay in LPS-stimulated THP-1 cells, Lumit immunoassay; format: cell-based, human; details: Homo sapiens, THP-1, 3 h, monocytic THP-1 cells, LPS 10 ng/mL, relative IC50, 10 concentrations, geometric mean
Method in brief: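 TNF-α release was quantified directly in the cell plate by Lumit immunoassay after a 3-h, 10 ng/mL LPS trigger of compound-treated THP-1 cells (RPMI, 5% FBS). Percent inhibition versus no-compound and unstimulated controls fed a 4-parameter logistic fit over 10 concentrations, giving geometric-mean relative IC50.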

T1 sequence (Q96P20 whole entry): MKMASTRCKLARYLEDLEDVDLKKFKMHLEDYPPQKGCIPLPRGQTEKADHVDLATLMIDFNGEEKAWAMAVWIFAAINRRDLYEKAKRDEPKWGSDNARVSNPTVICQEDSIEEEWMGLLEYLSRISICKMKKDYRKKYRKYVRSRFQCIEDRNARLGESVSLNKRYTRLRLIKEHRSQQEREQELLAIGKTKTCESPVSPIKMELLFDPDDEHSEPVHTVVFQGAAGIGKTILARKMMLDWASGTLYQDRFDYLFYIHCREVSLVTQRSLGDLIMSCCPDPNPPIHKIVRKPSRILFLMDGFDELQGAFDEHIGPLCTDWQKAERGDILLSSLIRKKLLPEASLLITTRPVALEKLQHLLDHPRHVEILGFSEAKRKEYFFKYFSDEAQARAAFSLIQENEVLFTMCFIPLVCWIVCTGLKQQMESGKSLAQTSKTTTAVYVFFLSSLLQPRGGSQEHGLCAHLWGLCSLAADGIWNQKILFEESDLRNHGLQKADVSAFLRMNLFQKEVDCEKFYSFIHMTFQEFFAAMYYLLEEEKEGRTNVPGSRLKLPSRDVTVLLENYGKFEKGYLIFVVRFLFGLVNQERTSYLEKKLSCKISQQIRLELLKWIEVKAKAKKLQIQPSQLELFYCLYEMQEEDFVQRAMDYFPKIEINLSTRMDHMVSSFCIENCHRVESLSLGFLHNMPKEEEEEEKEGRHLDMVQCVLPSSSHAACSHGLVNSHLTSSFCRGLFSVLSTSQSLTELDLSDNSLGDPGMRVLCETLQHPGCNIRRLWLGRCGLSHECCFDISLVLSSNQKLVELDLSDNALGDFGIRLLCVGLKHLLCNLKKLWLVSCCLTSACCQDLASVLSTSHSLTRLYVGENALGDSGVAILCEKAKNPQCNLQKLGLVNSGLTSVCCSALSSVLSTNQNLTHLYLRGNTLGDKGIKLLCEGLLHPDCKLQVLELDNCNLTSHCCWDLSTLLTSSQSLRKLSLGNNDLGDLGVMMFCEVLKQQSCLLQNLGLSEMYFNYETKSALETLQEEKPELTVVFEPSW

Structure (SMILES) | IC50 (NLRP3 inflammasome) | IC50 [1]
CN(C)C[C@H]1CCN(c2ccc(-c3c(O)cc(Cl)cc3Cl)nn2)C1 [Example 41, 3,5-dichloro-2-[6-[(3R)-3-[(dimethylamino)methyl]pyrrolidin-1-yl]pyridazin-3-yl]phenol] | 252 nM | > 10000 nM
Cc1cc(O)c(-c2ccc(N3CCO[C@H](CO)C3)nn2)c(F)c1 [Example 45, 3-fluoro-2-[6-[(2S)-2-(hydroxymethyl)morpholin-4-yl]pyridazin-3-yl]-5-methyl-phenol] | 281 nM | > 10000 nM
Oc1cc(Cl)cc(Cl)c1-c1ccc(N2CC3(CC(O)C3)C2)nn1 [Example 46, 2-[6-(2,4-dichloro-6-hydroxy-phenyl)pyridazin-3-yl]-2-azaspiro[3.3]heptan-6-ol] | 389 nM | > 10000 nM
OC[C@@H]1CN(c2ccc(-c3c(O)cccc3Cl)nn2)CCO1 [Example 48, 3-chloro-2-[6-[(2S)-2-(hydroxymethyl)morpholin-4-yl]pyridazin-3-yl]phenol] | 386 nM | > 10000 nM
CN1CC2(CCN(c3ccc(-c4c(O)cc(Cl)cc4Cl)nn3)CC2)C1 [Example 55, 3,5-dichloro-2-[6-(2-methyl-2,7-diazaspiro[3.5]nonan-7-yl)pyridazin-3-yl]phenol] | 176 nM | > 10000 nM
CC(=O)NC[C@H]1CCCN(c2ccc(-c3c(O)cc(Cl)cc3Cl)nn2)C1 [Example 57, N-[[(3R)-1-[6-(2,4-dichloro-6-hydroxy-phenyl)pyridazin-3-yl]-3-piperidyl]methyl]acetamide] | 248 nM | > 10000 nM
Oc1cc(Cl)cc(Cl)c1-c1ccc(N2CC3(COC3)C2)nn1 [Example 64, 3,5-dichloro-2-[6-(2-oxa-6-azaspiro[3.3]heptan-6-yl)pyridazin-3-yl]phenol] | 222 nM | > 10000 nM
Oc1cc(Cl)cc(Cl)c1-c1ccc(N2CCC3(CC2)COC3)nn1 [Example 66, 3,5-dichloro-2-[6-(2-oxa-7-azaspiro[3.5]nonan-7-yl)pyridazin-3-yl]phenol] | 304 nM | > 10000 nM
Cc1cc(C)c(-c2ccc(N3CCC[C@H](O)C3)nn2)c(O)c1 [Example 67, (3S)-1-[6-(2-hydroxy-4,6-dimethyl-phenyl)pyridazin-3-yl]piperidin-3-ol] | 306 nM | > 10000 nM
Cc1cc(C)c(-c2ccc(N3CCC[C@H](N)C3)nn2)c(O)c1 [Example 69, 2-[6-[(3S)-3-amino-1-piperidyl]pyridazin-3-yl]-3,5-dimethyl-phenol] | 200 nM | > 10000 nM
Cc1cc(C)c(-c2ccc(N3CC[C@@H](O)C3)nn2)c(O)c1 [Example 70, (3R)-1-[6-(2-hydroxy-4,6-dimethyl-phenyl)pyridazin-3-yl]pyrrolidin-3-ol] | 467 nM | > 10000 nM
Cc1cc(C)c(-c2ccc(N3CC[C@H](O)C3)nn2)c(O)c1 [Example 71, (3S)-1-[6-(2-hydroxy-4,6-dimethyl-phenyl)pyridazin-3-yl]pyrrolidin-3-ol] | 270 nM | > 10000 nM
Cc1ccc(-c2nnc(N3CCO[C@H](CO)C3)cc2C(C)C)c(O)c1 [Example 74, 2-[6-[(2S)-2-(hydroxymethyl)morpholin-4-yl]-4-isopropyl-pyridazin-3-yl]-5-methyl-phenol] | 411 nM | > 10000 nM
CC(C)c1cc(N2CCO[C@H](CO)C2)nnc1-c1ccc(Cl)cc1O [Example 75, 5-chloro-2-[6-[(2S)-2-(hydroxymethyl)morpholin-4-yl]-4-isopropyl-pyridazin-3-yl]phenol] | 183 nM | 9600 nM
OC[C@@H]1CN(c2nnc(-c3ccc(Cl)cc3O)c3c2CCC3)CCO1 [Example 78, 5-chloro-2-[4-[(2S)-2-(hydroxymethyl)morpholin-4-yl]-6,7-dihydro-5H-cyclopenta[d]pyridazin-1-yl]phenol] | 436 nM | > 10000 nM
Cc1cc(C)c(-c2ccc(N3CC[C@H](CO)C3)nn2)c(O)c1 [Example 79, 2-[6-[(3S)-3-(hydroxymethyl)pyrrolidin-1-yl]pyridazin-3-yl]-3,5-dimethyl-phenol] | 285 nM | 9500 nM
Cc1ccc(-c2nnc(N3CCO[C@H](CO)C3)c(C)c2C)c(O)c1 [Example 80, 2-[6-[(2S)-2-(hydroxymethyl)morpholin-4-yl]-4,5-dimethyl-pyridazin-3-yl]-5-methyl-phenol] | 208 nM | > 10000 nM
Cc1c(-c2ccc(Cl)cc2O)nnc(N2CCO[C@H](CO)C2)c1C [Example 81, 5-chloro-2-[6-[(2S)-2-(hydroxymethyl)morpholin-4-yl]-4,5-dimethyl-pyridazin-3-yl]phenol] | 164 nM | 9800 nM
Cc1cc(C)c(-c2ccc(N3C[C@@H](O)CC3=O)nn2)c(O)c1 [Example 86, (4S)-4-hydroxy-1-[6-(2-hydroxy-4,6-dimethyl-phenyl)pyridazin-3-yl]pyrrolidin-2-one] | 506 nM | > 10000 nM
Cc1cc(C)c(-c2ccc(N3CCO[C@@H](CN)C3)nn2)c(O)c1 [Example 87, 2-[6-[(2S)-2-(aminomethyl)morpholin-4-yl]pyridazin-3-yl]-3,5-dimethyl-phenol; 2,2,2-trifluoroacetic acid] | 311 nM | > 10000 nM
COc1ccc(-c2nnc(N3CCO[C@H](CO)C3)cc2C)c(O)c1 [Example 116, 2-[6-[(2S)-2-(hydroxymethyl)morpholin-4-yl]-4-methyl-pyridazin-3-yl]-5-methoxy-phenol] | 454 nM | > 10000 nM
COc1cc(C)c(-c2nnc(N3CCO[C@H](CO)C3)cc2C)c(O)c1 [Example 119, 2-[6-[(2S)-2-(hydroxymethyl)morpholin-4-yl]-4-methyl-pyridazin-3-yl]-5-methoxy-3-methyl-phenol] | 561 nM | > 10000 nM

Now those with a lower IC50 (NLRP3 inflammasome), led by results:

IC50 (NLRP3 inflammasome) | IC50 [1] | Structure (SMILES)
134 nM | > 10000 nM | Oc1cc(Cl)cc(Cl)c1-c1ccc(N2CCC3(CC(O)C3)C2)nn1 (stereo not drawn) [Example 42, 6-[6-(2,4-dichloro-6-hydroxy-phenyl)pyridazin-3-yl]-6-azaspiro[3.4]octan-2-ol]
132 nM | > 10000 nM | OC[C@@H]1CN(c2ccc(-c3c(O)cccc3C(F)(F)F)nn2)CCO1 [Example 54, 2-[6-[(2S)-2-(hydroxymethyl)morpholin-4-yl]pyridazin-3-yl]-3-(trifluoromethyl) phenol]
111 nM | > 10000 nM | Cc1cccc(O)c1-c1ccc(N2CCO[C@H](CO)C2)nn1 [Example 56, 2-[6-[(2S)-2-(hydroxymethyl)morpholin-4-yl]pyridazin-3-yl]-3-methyl-phenol]
64 nM | > 10000 nM | CC(=O)NC[C@@H]1CCCN(c2ccc(-c3c(O)cc(Cl)cc3Cl)nn2)C1 [Example 58, N-[[(3S)-1-[6-(2,4-dichloro-6-hydroxy-phenyl)pyridazin-3-yl]-3-piperidyl]methyl]acetamide]
90 nM | > 10000 nM | Cc1cc(C(F)(F)F)cc(O)c1-c1ccc(N2CCCC2=O)nn1 [Example 61, 1-[6-[2-hydroxy-6-methyl-4-(trifluoromethyl)phenyl]pyridazin-3-yl]pyrrolidin-2-one]
52 nM | > 10000 nM | Cc1cc(C(F)(F)F)cc(O)c1-c1ccc(N2C[C@@H](O)CC2=O)nn1 [Example 62, (4S)-4-hydroxy-1-[6-[2-hydroxy-6-methyl-4-(trifluoromethyl)phenyl]pyridazin-3-yl]pyrrolidin-2-one]
6 nM | > 10000 nM | Cc1cc(Cl)cc(O)c1-c1ccc(N2CCO[C@H](CO)C2)nn1 [Example 63, 5-chloro-2-[6-[(2S)-2-(hydroxymethyl)morpholin-4-yl]pyridazin-3-yl]-3-methyl-phenol]
151 nM | > 10000 nM | Cc1cc(C)c(-c2ccc(N3CC[C@@H](CO)C3)nn2)c(O)c1 [Example 65, 2-[6-[(3R)-3-(hydroxymethyl)pyrrolidin-1-yl]pyridazin-3-yl]-3,5-dimethyl-phenol]
107 nM | > 10000 nM | CCc1cc(N2CCO[C@H](CO)C2)nnc1-c1ccc(C)cc1O [Example 72, 2-[4-ethyl-6-[(2S)-2-(hydroxymethyl)morpholin-4-yl]pyridazin-3-yl]-5-methyl-phenol]
56 nM | > 10000 nM | CCc1cc(N2CCO[C@H](CO)C2)nnc1-c1ccc(Cl)cc1O [Example 73, 5-chloro-2-[4-ethyl-6-[(2S)-2-(hydroxymethyl)morpholin-4-yl]pyridazin-3-yl]phenol]
66 nM | 8600 nM | Cc1ccc(-c2nnc(N3CCO[C@H](CO)C3)cc2C)c(O)c1 [Example 76, 2-[6-[(2S)-2-(hydroxymethyl)morpholin-4-yl]-4-methyl-pyridazin-3-yl]-5-methyl-phenol]
135 nM | > 10000 nM | Cc1ccc(-c2nnc(N3CCO[C@H](CO)C3)c3c2CCC3)c(O)c1 [Example 77, 2-[4-[(2S)-2-(hydroxymethyl)morpholin-4-yl]-6,7-dihydro-5H-cyclopenta[d]pyridazin-1-yl]-5-methyl-phenol]
33 nM | > 10000 nM | Cc1cc(N2CCO[C@H](CO)C2)nnc1-c1ccc(Cl)cc1O [Example 85, 5-chloro-2-[6-[(2S)-2-(hydroxymethyl)morpholin-4-yl]-4-methyl-pyridazin-3-yl]phenol]
92 nM | > 10000 nM | Cc1cc(OC(F)(F)F)cc(O)c1-c1ccc(N2CCO[C@H](CO)C2)nn1 [Example 121, 2-[6-[(2S)-2-(hydroxymethyl)morpholin-4-yl]pyridazin-3-yl]-3-methyl-5-(trifluoromethoxy)phenol]
